≈ marks a conversion by molar mass, not a printed value. Where two headings read alike, the source gives them in different places. Where a SMILES comes first, the peptide text is derived from it. [ ]: non-standard residue; d: D form.
Experiments:
[1] = system: human cell line, red blood cells
Method: As positive control, cells were treated with 2% Triton X-100 while treatment with 0.01% acetic acid was used as negative control. […] Hemolytic activity was normalized to the hemolytic activity of 0.1% Triton X-100. The experiments were carried out in duplicates.
The activity was normalized to the positive control. As positive control, cells were treated with 2% Triton X-100 while treatment with 0.01% acetic acid was used as negative control.

P. aeruginosa PAO1 = assay type: cell-based
Method: (§1) The tested bacteria were incubated overnight in 1×TSB broth, centrifuged and washed with 10 mM sodium phosphate buffer containing 1% (w/v) TSB broth. 5×10^5 cfu/ml bacteria were mixed with different peptide concentrations in 10 mM sodium phosphate buffer with 1% (w/v) TSB (final volume 100 μl) and incubated for 2 hours at 37° C. Afterwards we added 100 μl 2×TSB broth and we measured the optical density at 600 nm (Spark 10M, Tecan, Austria). Bacterial growth was monitored for 12 hours, growing at 37° C. with shaking during the measurements each 30 minutes, except for Akkermansia muciniphila which were incubated at 37° C. in an anaerobic jar and growth was measured after 72 hours.

P. aeruginosa XPAT1 = assay type: cell-based
Method: as §1

P. aeruginosa ATCC 27853 = assay type: cell-based
Method: as §1

S. aureus ATCC 25923 = assay type: cell-based
Method: as §1

P. aeruginosa 4-MRGN = assay type: cell-based
Method: as §1

A. baumannii DSM 30007 = assay type: cell-based
Method: as §1

E. coli BW 25113 [2] = assay type: cell-based
Method: as §1

A. baumannii 4-MRGN = assay type: cell-based
Method: as §1

P. aeruginosa XPAT2 = assay type: cell-based
Method: as §1

E. faecium DSM 20477 = assay type: cell-based
Method: as §1

Y. enterocolitica = assay type: cell-based
Method: as §1

S. aureus USA300 = assay type: cell-based
Method: as §1

C. albicans 529L = assay type: cell-based
E. faecium 475747 = assay type: cell-based
Method: as §1

E. coli JM83 = assay type: cell-based
Method: as §1

K. pneumoniae DSM 30104 = assay type: cell-based
Method: as §1

K. pneumoniae 3-MRGN = assay type: cell-based
Method: as §1

CaCo2/TC7 cells = system: CaCo2/TC7 cells
Method: CaCo2/TC7 (X, X) and HT29 MTX […] […] Experiments were carried out in duplicates.

human erythrocytes = assay: Hemolytic assay; assay type: cell-based
Method: Hemolytic activity was measured after an existing protocol^13. We obtained blood from two voluntary donors (sample collection had been previously approved by the Ethical Committee of the University Hospital of Tübingen, Germany) and 1 ml blood was washed with PBS two times. Afterwards we centrifuged the blood at 1000 g and performed a 1% (v/v) blood suspension in PBS. The blood suspension was incubated with different peptide concentrations (final concentration 0.5%) for one hour at 37° C. Then the samples were centrifuged at 1000 g for 10 minutes and the supernatant was collected and measured at 414 nm. […] These experiments were carried out in duplicates.

[3] = system: S. enterica serovar enteriditis; assay: Turbidity broth assay (MIC); assay type: cell-based; settings: after 12 hours
Method: as §1

[4] = system: S. enterica serovar Enteritidis; assay: Turbidity assay, MIC by optical density after 18 h; assay type: cell-based; set-up: key: XX High activity; X Low activity; No activity
E. coli BW 25113 [5] = assay: Turbidity assay, MIC by optical density after 18 h; assay type: cell-based; set-up: key: XX High activity; X Low activity; No activity
Method: Bactericidal activity of the E. coli and S. aureus strains in the cell wall target experiments as well as the HD5 dimer experiments was assessed as described previously. Log-phase bacteria were collected by centrifugation (2500 rpm, 10 min, […]), washed twice with 10 mM sodium phosphate buffer containing 1% (w/v) TSB broth and the optical density at OD600 nm (OD600=0.1) was determined. Approximately 5×10^5 CFU/ml bacteria were incubated with serial peptide concentrations (1.17-150 μM) in a final volume of 100 μl in 10 mM sodium phosphate buffer containing 1% (w/v) TSB broth for 2 hours at 37° C. After incubation, 100 μl of 6% TSB (w/v) were added and absorbance was measured at 600 nm (Tecan, Switzerland) and monitored for 18 hours. Afterwards, 100 μl per well were plated on LB-plates to determine the numbers of viable bacteria microbiologically. Bactericidal activity is expressed as the LC99.9, the lowest concentration that killed ≥99.9% of bacteria. The experiment was repeated at least three times independently.

E. faecalis ATCC 19433 = assay: Turbidity assay, MIC by optical density after 18 h; assay type: cell-based
[6] = P. aeruginosa PAO1, after 12 hours
[7] = P. aeruginosa XPAT1, after 12 hours
[8] = P. aeruginosa ATCC 27853, after 12 hours
[9] = E. faecium 475747, after 12 hours
[10] = S. aureus ATCC25923, after 12 hours
[11] = P. aeruginosa 4-MRGN, after 12 hours
[12] = A. baumannii DSM30007, after 12 hours
[13] = A. baumannii 4-MRGN, after 12 hours
[14] = P. aeruginosa XPAT2, after 12 hours
[15] = E. faecium DSM20477, after 12 hours
[16] = Y. enterocolitica, after 12 hours
[17] = K. pneumoniae DSM30104, after 12 hours
[18] = K. pneumoniae 3-MRGN, after 12 hours
[19] = S. aureus USA300, after 12 hours

Method for HT29 MTX E29 cells: CaCo2/TC7 (X, X) and HT29 MTX [MUT] (X, X) were seed in a 96 well plate in 90 μl media (1500 cells/well) and incubated at 37° C. for 24 hours. Afterwards peptide treatment with different concentrations started (volume of 10 μl solved in 0.01% acetic acid) and cells were incubated for 96 hours. Untreated and 1% Triton-X treated cells were used as controls. After the incubation we added 100 μl of CellTiter Glo2.0 solution and started our measurement protocol. The measurement was carried out in a Spark 10M (Tecan), starting with 12 minutes continuously shaking followed by the luminescence measurement with an integration time from 1 second per well. Experiments were carried out in duplicates.

Row | Compound | MIC (P. aeruginosa PAO1; PAO1, 12 h) [µM] | MIC (P. aeruginosa XPAT1; XPAT1, 12 h) [µM] | MIC (P. aeruginosa ATCC 27853; ATCC 27853, 12 h) [µM] | MIC (S. aureus ATCC 25923; ATCC 25923, 12 h) [µM] | MIC (P. aeruginosa 4-MRGN; 4-MRGN, 12 h) [µM] | MIC (A. baumannii DSM 30007; DSM 30007, 12 h) [µM] | MIC (A. baumannii 4-MRGN; 4-MRGN, 12 h) [µM] | MIC (P. aeruginosa XPAT2; XPAT2, 12 h) [µM] | MIC (E. faecium DSM 20477; DSM 20477, 12 h) [µM] | MIC (Y. enterocolitica; 12 h) [µM] | MIC (S. aureus USA300; USA300, 12 h) [µM] | MIC (P. aeruginosa PAO1; [6]) | MIC (P. aeruginosa XPAT1; [7]) | MIC (P. aeruginosa ATCC 27853; [8]) | MIC (E. faecium 475747; [9]) | MIC (S. aureus ATCC 25923; [10]) | MIC (P. aeruginosa 4-MRGN; [11]) | MIC (A. baumannii DSM 30007; [12]) | MIC (A. baumannii 4-MRGN; [13]) | MIC (P. aeruginosa XPAT2; [14]) | further results
1 | C[C@H](N)C(=O)N[C@H](C(=O)N[C@@H](CS)C(=O)N[C@@H](Cc1ccc(O)cc1)C(=O)N[C@@H](CS)C(=O)N[C@@H](CCCNC(=N)N)C(=O)N[C@H](C(=O)NCC(=O)N[C@@H](CCCNC(=N)N)C(=O)O)[C@@H](C)O)[C@@H](C)O [HD-51-9] (H-ATCYCRTGR-OH; N-terminus and C-terminus assumed) | 50 | >100 | 50 | 50 | 100 | 100 | 25 | >100 | 25 | 50 to 100 | 50 | – | – | – | – | – | – | – | – | – | toxic effect in in vitro experiments [1]: no toxicity was observed; MIC (E. coli BW 25113 [2]; BW 25113, 12 h): 25 µM (≈ 25.8 µg/mL)
2 | CC(=O)N[C@@H](C(=O)N[C@H](CS)C(=O)N[C@H](CO)C(=O)N[C@H](CS)C(=O)N[C@H](CCCNC(=N)N)C(=O)N[C@H](CC(C)C)C(=O)N[C@@H](C(=O)N[C@H](Cc1ccccc1)C(=O)N[C@H](CS)C(=O)N[C@H](CCCNC(=N)N)C(=O)N[C@H](CCCNC(=N)N)C(N)=O)C(C)C)C(C)C [HNP-41-11mod, Ac-vcscrlvfcrr-NH2] (Ac-[dV][dC][dS][dC][dR][dL][dV][dF][dC][dR][dR]-NH2) | 12.5 | 12.5 | 6.25 | 3.125 | 6.25 | 6.25 | 6.25 | 12.5 | 6.25 | 6.25 | 12.5 | 17.3 µg/mL | 17.3 µg/mL | 8.6 µg/mL | 4.3 µg/mL | 4.3 µg/mL | 8.6 µg/mL | 8.6 µg/mL | 8.6 µg/mL | 17.3 µg/mL | MIC (C. albicans 529L; 529L, 24 h): 25 µM; MIC (C. albicans 529L; C. albicans 529L, after 24 hours (Table 5)): 34.6 µg/mL; MIC (E. faecium 475747; 475747, 12 h): 3.125 µM; MIC (E. coli JM83; E. coli JM83, after 12 hours): 8.6 µg/mL; MIC (E. coli JM83; JM83, 12 h): 6.25 µM; MIC (E. faecium DSM 20477; [15]): 8.6 µg/mL; MIC (Y. enterocolitica; [16]): 8.6 µg/mL; MIC (K. pneumoniae DSM 30104; DSM 30104, 12 h): 6.25 µM; MIC (K. pneumoniae DSM 30104; [17]): 8.6 µg/mL; MIC (K. pneumoniae 3-MRGN; 3-MRGN, 12 h): 6.25 µM; MIC (K. pneumoniae 3-MRGN; [18]): 8.6 µg/mL; MIC (S. aureus USA300; [19]): 17.3 µg/mL; cytotoxic effects (CaCo2/TC7 cells): minor cytotoxic effects; hemolytic toxicity (human erythrocytes; at ≤18.75 μM): negligible toxicity; hemolytic activity, in words (human erythrocytes; compared to Melittin): low hemolytic activity; cytotoxic effects compared to CaCo2/TC7 (HT29 MTX E29 cells): more susceptible
3 | Ac-atcycrtGr-NH2 [HD-51-9mod] | – | – | – | – | – | – | – | – | – | – | – | 50 µM | >100 µM | 12.5 µM | 3.125 µM | 12.5 µM | 50 µM | 25 µM | 12.5 µM | 100 µM | MIC (C. albicans 529L; C. albicans 529L, after 12 hours (Table 4)): >100 µM; MIC (E. coli BW 25113 [2]; E. coli (BW 25113 per table title), after 12 hours): 25 µM; MIC (E. faecium DSM 20477; [15]): 6.25 µM; MIC (Y. enterocolitica; [16]): 50 to 100 µM; MIC (K. pneumoniae DSM 30104; [17]): >>>; MIC (K. pneumoniae 3-MRGN; [18]): >>>; MIC (S. aureus USA300; [19]): 12.5 µM; MIC [3]: >>>
4 | RGTRCYCTA [HD-51-9rev] | – | – | – | – | – | – | – | – | – | – | – | – | – | – | – | – | – | – | – | – | antimicrobial activity (MIC), activity class [4]: X; antimicrobial activity (MIC), activity class (E. coli BW 25113 [5]): XX; antimicrobial activity, in words (E. faecalis ATCC 19433): complete dissolving of bactericidal effects
